From patent publication US8686044B2, “Amide derivative, pest control agent containing the amide derivative, and use of the amide derivative” (Mitsui Chemicals Agro, Inc., priority 2008, dated 2014)
Where two headings read alike, the source gives them in different places.

What was measured:
Assay type in all cases: in vivo
Rhipicephalus sanguineus = experiment: Insecticidal test for Rhipicephalus sanguineus (treated glass petri dish, Table A6); conditions: adults of Rhipicephalus sanguineus, 18 hour exposure, examined after 48 hours, in single
Method: Insecticidal Test for Rhipicephalus sanguineus
0.5 ml of a solution of acetone, the active ingredient, prepared to the prescribed dose was added dropwise into a glass petri dish with a diameter of 10 cm, and the acetone was evaporated at room temperature. About 10 adults of Rhipicephalus sanguineus per dish were added, and the dish was covered by another glass petri dish that was treated with the active ingredient in the same manner described above. After 18 hour exposure to the test substance, the adults were transferred into a glass petri dish that was not treated with the active ingredient. After 48 hours of the exposure, the conditions of the adults were examined and classified into “alive” and “dead (including a moribund condition)” to determine the death rate (in single).
As the comparative compounds, said Compounds (B), (C), and (D), and the following Compound (F) disclosed in WO2009/080203, and fipronil were used.

Ctenocephalides Felis [1] = experiment: Insecticidal test for Ctenocephalides felis, Test Example 1 (dry film in glass tube, 0.5 ml, Table A4); conditions: for pest or weed control at 1 µg/mL / pest or weed control at 0.1 µg/mL: Ctenocephalides felis, read-out: death rate; for pest or weed control at 1 µg/mL: concentration 1.0 μg/ml
Method: Insecticidal Test for Ctenocephalides Felis
0.5 ml of a solution of acetone, the active ingredient, prepared to the prescribed concentration was added dropwise to a glass tube with a flat bottom (internal diameter: 2.6 cm, bottom area: 5.3 cm^2, height: 12 cm), and the solvent was evaporated at room temperature to form a dry film of the agent on the bottom surface. About 10 adults of Ctenocephalides Felis per glass tube were added, and the adults were contact-exposed to the test compound. After 24 hours of the exposure, the conditions of the adults were examined and classified into “alive” and “dead (including a moribund condition)” to determine the death rate (in triplicate).
As the comparative compounds, the following Compounds (A), (B), and (C) disclosed in WO2009/080203, and fipronil were used.

Adoxophyes honmai = experiment: Pesticidal test against Adoxophyes honmai (artificial feed dip); conditions: 144 h, 2-stage larvae, examined after 6 days, 25° C., read-out: pesticidal rate; for pest or weed control at 10 ppm: concentration 10 ppm; for pest or weed control at 1 ppm: concentration 1 ppm
Outline: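 Thin artificial feed slices dipped 30 s in test solution at a predetermined concentration, air-dried, then offered to 2nd-stage larvae. Kept at 25° C; live and dead larvae counted after 6 days. Five larvae per group, two replicates.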

Spodoptera litura = experiment: Pesticidal test against Spodoptera litura (cabbage leaf dip); conditions: foliar, 144 h, concentration 1 ppm, 2-stage larvae, examined after 6 days, 25° C., read-out: pesticidal rate
Outline: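 Cabbage leaf pieces dipped 30 seconds in compound solution at a predetermined concentration and air-dried, then offered to second-stage larvae, five per group in two replicates. Held at 25° C. Living and dead larvae counted after 6 days.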

Musca domestica = experiment: Pesticidal test against Musca domestica (petri dish dry film); conditions: 24 h, concentration 100 ppm, female adults, examined after 1 day, 25° C., read-out: pesticidal rate
Outline: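 Dry film from 1 ml acetone solution of compound at a predetermined concentration, air-dried in a 9 cm petri dish; female adult flies released and dish capped. Held at 25° C; living and dead counted after 1 day. Five insects per group, two replicates.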

Helicoverpa armigera = experiment: Pesticidal test against Helicoverpa armigera (cabbage leaf disk dip); conditions: foliar, 72 h, 2-stage larvae, examined after 3 days, 25° C., read-out: pesticidal rate; for pest or weed control at 1 ppm: concentration 1 ppm
Outline: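 Cabbage leaf disks were dipped for 30 s in test solution at a set concentration and air-dried. Second-instar larvae were placed one per hole and held at 25 °C, with live and dead counts taken after 3 days. Five larvae per group were tested in two replicates.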

Laodelphax striatellus = experiment: Pesticidal test against Laodelphax striatellus (rice seedling spray); conditions: 144 h, concentration 100 ppm, 3-stage larvae, examined after 6 days, 25° C., read-out: pesticidal rate
Outline: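 Rice seedlings sprayed with 2.5 ml acetone solution of compound at a predetermined concentration, air-dried, then infested with third-stage Laodelphax striatellus larvae in capped water-containing tubes at 25 °C. Living and dead insects counted after 6 days; ten larvae per group, two replicates.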

Blattella germanica = experiment: Pesticidal test against Blattella germanica (petri dish dry film); conditions: 24 h, concentration 100 ppm, female adults, examined after 1 day, 25° C., read-out: pesticidal rate
Outline: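 Acetone solution of test compound at a predetermined concentration dried as a film in a 9 cm petri dish; female adult cockroaches released onto it and kept at 25° C. Living and dead counted after 1 day; five insects per group, two replicates.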

Choristoneura magnanima = experiment: Pesticidal test against Choristoneura magnanima (artificial feed dip); conditions: 144 h, 2-stage larvae, examined after 6 days, 25° C., read-out: pesticidal rate; for pest or weed control at 1 ppm: concentration 1 ppm
Outline: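 Thin artificial feed slices dipped 30 s in compound solution at a set concentration, air-dried, then offered to 2nd-stage larvae held at 25° C. Living and dead larvae counted after 6 days; five larvae per group, two replicates.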

Plutella xylostella = experiment: Pesticidal test against Plutella xylostella (cabbage leaf dip); conditions: foliar, 144 h, concentration 1 ppm, 2-stage larvae, examined after 6 days, 25° C., read-out: pesticidal rate
Outline: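 Cabbage leaf pieces dipped 30 s in test solution at a predetermined concentration, air-dried, then offered to 2nd-instar larvae, five per group in duplicate. Held at 25° C; living and dead larvae counted after 6 days.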

Coptotermes formosanus = experiment: Pesticidal test against Coptotermes formosanus (treated filter paper); conditions: 120 h, concentration 30 ppm, examined after 5 days of treatment, 28° C., read-out: pesticidal rate
Method: Pesticidal Test against Coptotermes formosanus
20 μl of an acetone solution in which a test compound had been prepared at a predetermined concentration was added dropwise to the filter paper having a diameter of […] included in a polypropylene cup, and air-dried, and then 20 μl of water was added thereto. Coptotermes formosanus was released and the cup was capped. They were left to stand in a thermostatic chamber at 28° C., and the numbers of the living pests and the dead pests were examined after 5 days of treatment. The test was carried out with ten larvae per group in two replicates.

Ctenocephalides Felis [2] = experiment: Insecticidal test for Ctenocephalides felis, Test Example 3 (dry film in glass tube, 0.96 ml, Table A5); conditions: adults of Ctenocephalides felis, after 24 hours of exposure, in triplicate
Method: Insecticidal Test for Ctenocephalides felis
0.96 ml of a solution of acetone, the active ingredient, prepared to the prescribed concentration was added dropwise to a glass tube with a flat bottom (internal diameter: 3.6 cm, height: 12 cm), and the solvent was evaporated at room temperature to form a dry film of the agent on the bottom surface. About 10 adults of Ctenocephalides felis per glass tube were added, and they were contact-exposed to the test compound. After 24 hours of the exposure, the conditions of the adults were examined and classified into “alive” and “dead (including a moribund condition)” to determine the death rate was determined (in triplicate).
As the comparative compounds, the following Compounds (D) and (E) disclosed in WO2009/080203, and fipronil were used.

Ctenocephalides Felis [3] = experiment: Insecticidal test for Ctenocephalides felis, Test Example 1 (dry film in glass tube, 0.5 ml, Table A4); conditions: adults
[4] = adults, after 24 hours of the exposure, in triplicate
[5] = concentration 0.1 μg/ml, adults, after 24 hours of the exposure, in triplicate

SMILES | death rate (Rhipicephalus sanguineus; 0.673 mg/m^2) | pest or weed control at 1 ppm (Spodoptera litura) | pest or weed control at 100 ppm (Musca domestica) | pest or weed control at 1 ppm (Helicoverpa armigera) | pest or weed control at 100 ppm (Laodelphax striatellus) | pest or weed control at 100 ppm (Blattella germanica) | pest or weed control at 1 ppm (Choristoneura magnanima) | pest or weed control at 1 ppm (Plutella xylostella) | pest or weed control at 30 ppm (Coptotermes formosanus) | also measured
O=C(Nc1cccc(C(=O)Nc2c(I)cc(C(F)(C(F)(F)F)C(F)(F)F)cc2I)c1)c1ccccc1 [compound (B)] | 0.0% |  |  |  |  |  |  |  |  | death rate (Rhipicephalus sanguineus; 2.69 mg/m^2): 20.0%; death rate (Rhipicephalus sanguineus; 10.8 mg/m^2): 50.0%; pest or weed control at 1 µg/mL (Ctenocephalides Felis [1]; [4]): 3.2%
Cc1cc(C(F)(C(F)(F)F)C(F)(F)F)cc(C)c1NC(=O)c1cccc(NC(=O)c2cccnc2F)c1 [compound (A), reference compound] |  |  |  |  |  |  |  |  |  | pest or weed control at 1 µg/mL (Ctenocephalides Felis [1]; [4]): 0%
CN(C(=O)c1ccc(F)cc1)c1cccc(C(=O)Nc2c(Br)cc(C(F)(C(F)(F)F)C(F)(F)F)cc2C(F)(F)F)c1F [7-1577] |  | ≥ 70% | ≥ 70% | ≥ 70% | ≥ 70% | ≥ 70% | ≥ 70% | ≥ 70% | ≥ 70% | pest or weed control at 10 ppm (Adoxophyes honmai): ≥ 70%
O=C(Nc1cccc(C(=O)Nc2c(I)cc(C(F)(F)F)cc2C(F)(F)F)c1)c1ccccc1 [compound (C)] | 0.0% |  |  |  |  |  |  |  |  | death rate (Rhipicephalus sanguineus; 2.69 mg/m^2): 11.1%; death rate (Rhipicephalus sanguineus; 10.8 mg/m^2): 10.0%; pest or weed control at 1 µg/mL (Ctenocephalides Felis [1]; [4]): 0%
N#Cc1nn(-c2c(Cl)cc(C(F)(F)F)cc2Cl)c(N)c1[S+]([O-])C(F)(F)F (stereo not drawn) [fipronil] | 100.0% |  |  |  |  |  |  |  |  | death rate (Ctenocephalides Felis [2]; 0.03 μg/ml): 70.0%; death rate (Ctenocephalides Felis [2]; 0.1 μg/ml): 100.0%; death rate (Rhipicephalus sanguineus; 0.0431 mg/m^2): 0.0%; death rate (Rhipicephalus sanguineus; 0.172 mg/m^2): 45.5%; pest or weed control at 0.1 µg/mL (Ctenocephalides Felis [1]; 24 h): 92.1%
CN(C(=O)c1ccccc1)c1cccc(C(=O)Nc2c(I)cc(C(F)(C(F)(F)F)C(F)(F)F)cc2C(F)(F)F)c1 [7-424] |  | ≥ 70% | ≥ 70% | ≥ 70% | ≥ 70% | ≥ 70% |  | ≥ 70% | ≥ 70% | pest or weed control at 10 ppm (Adoxophyes honmai): ≥ 70%; pest or weed control at 10 ppm (Choristoneura magnanima; concentration 10 ppm): ≥ 70%
CN(C(=O)c1ccccc1)c1cccc(C(=O)Nc2c(Br)cc(C(F)(C(F)(F)F)C(F)(F)F)cc2Br)c1F [7-1104, N-(2,6-dibromo-4-(heptafluoropropan-2-yl)phenyl)-2-fluoro-3-(N-methylbenzamide)benzamide] |  | ≥ 70% | ≥ 70% |  | ≥ 70% | ≥ 70% | ≥ 70% | ≥ 70% | ≥ 70% | pest or weed control at 10 ppm (Adoxophyes honmai): ≥ 70%; effect in the examination after 12 hours of the exposure (Ctenocephalides Felis [3]): effective; pest or weed control at 10 ppm (Helicoverpa armigera; concentration 10 ppm): ≥ 70%; pest or weed control at 0.1 µg/mL (Ctenocephalides Felis [1]; [5]): 73.3%; speed of effect as compared with the fipronil (Ctenocephalides Felis [1]; adults, compared with fipronil): immediate effect
CN(C(=O)c1cccc(F)c1)c1cccc(C(=O)Nc2c(I)cc(C(F)(C(F)(F)F)C(F)(F)F)cc2C(F)(F)F)c1F [7-1732, 2-fluoro-3-(3-fluoro-N-methylbenzamide)-N-(2-iodo-4-(heptafluoropropan-2-yl)-6-(trifluoromethyl)phenyl)benzamide] |  | ≥ 70% | ≥ 70% | ≥ 70% | ≥ 70% | ≥ 70% | ≥ 70% | ≥ 70% | ≥ 70% | pest or weed control at 1 ppm (Adoxophyes honmai): ≥ 70%; pest or weed control at 0.1 µg/mL (Ctenocephalides Felis [1]; [5]): 76.7%
CCc1cc(C(F)(C(F)(F)F)C(F)(F)F)cc(C)c1NC(=O)c1cccc(NC(=O)c2ccccc2Cl)c1F [compound (E)] |  |  |  |  |  |  |  |  |  | death rate (Ctenocephalides Felis [2]; 1 μg/ml): 0.0%
CN(C(=O)c1ccccc1)c1cccc(C(=O)Nc2c(Br)cc(C(F)(C(F)(F)F)C(F)(F)F)cc2C(F)(F)F)c1 [7-268] |  | ≥ 70% | ≥ 70% |  | ≥ 70% | ≥ 70% |  | ≥ 70% | ≥ 70% | 
Cc1cc(C(F)(C(F)(F)F)C(F)(F)F)cc(C)c1NC(=O)c1cccc(NC(=O)c2cccnc2Cl)c1F [compound (D)] | 0.0% |  |  |  |  |  |  |  |  | death rate (Ctenocephalides Felis [2]; 0.3 μg/ml): 22.0%; death rate (Ctenocephalides Felis [2]; 1 μg/ml): 61.4%; death rate (Rhipicephalus sanguineus; 2.69 mg/m^2): 10.0%; death rate (Rhipicephalus sanguineus; 10.8 mg/m^2): 50.0%
O=C(Nc1cccc(C(=O)Nc2c(I)cc(C(F)(C(F)(F)F)C(F)(F)F)cc2C(F)(F)F)c1F)c1ccc(F)cc1 [6-1733, 2-fluoro-3-(4-fluorobenzamide)-N-(2-iodo-4-(heptafluoropropan-2-yl)-6-(trifluoromethyl)phenyl)benzamide] |  | ≥ 70% | ≥ 70% | ≥ 70% | ≥ 70% | ≥ 70% | ≥ 70% | ≥ 70% |  | pest or weed control at 1 ppm (Adoxophyes honmai): ≥ 70%; pest or weed control at 0.1 µg/mL (Ctenocephalides Felis [1]; [5]): 70%
O=C(Nc1cccc(C(=O)Nc2c(I)cc(C(F)(C(F)(F)F)C(F)(F)F)cc2I)c1F)c1ccccc1 [6-1260, 3-benzamide-N-(2,6-diiodo-4-(perfluoropropan-2-yl)phenyl)-2-fluorobenzamide] |  | ≥ 70% | ≥ 70% | ≥ 70% | ≥ 70% |  | ≥ 70% | ≥ 70% | ≥ 70% | pest or weed control at 1 ppm (Adoxophyes honmai): ≥ 70%
